From patent US20170114025A1, “METHODS FOR INHIBITING NECROPTOSIS” (Catalyst Therapeutics Pty Ltd, priority 2014, published 2017)

Key:
[1] = biological target: T1, recombinant RIPK3 (Mus musculus, UniProt Q9QZL0); assay: In vitro kinase assay; format: biochemical; settings: for concentrations leading to enhanced RIPK3-mediated phosphorylation of MLKL: mouse MLKL(179-464) as substrate
T1 construct: Recombinant mRIPK3 kinase domain was expressed and purified from Sf21 cells; made in house; host or cells: Sf21 cells
Protocol: In vitro kinase assays were performed as described previously in Murphy J M, et al. (2013), Immunity 39(3):443-453 and Cook W D, et al. (2014) Cell Death Diff. in press, but for the addition of either a DMSO control or up to 12.5 μM of test compound in 0.5% v/v final DMSO.

[2] = biological target: T2, mouse MLKL(179-464) pseudokinase domain (Mus musculus, UniProt Q9D2Y4); assay: Surface Plasmon Resonance (SPR) binding, mouse MLKL
T2 construct: made in house; host or cells: Sf21 insect cells
T2 sequence (Q9D2Y4 179-464 isoform Q9D2Y4-2): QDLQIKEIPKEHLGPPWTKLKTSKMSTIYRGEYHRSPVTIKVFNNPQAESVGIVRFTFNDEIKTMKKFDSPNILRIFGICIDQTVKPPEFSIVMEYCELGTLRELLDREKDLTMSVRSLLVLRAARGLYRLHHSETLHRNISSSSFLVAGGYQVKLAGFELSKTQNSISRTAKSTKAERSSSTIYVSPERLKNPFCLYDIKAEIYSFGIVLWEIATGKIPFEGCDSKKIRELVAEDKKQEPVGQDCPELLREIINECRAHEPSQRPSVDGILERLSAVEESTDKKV
Excerpt: Double His-tagged MLKL and an unrelated negative control reference protein were immobilized on an NTA Capture chip charged with Ni^2+ according to manufacturer's instructions. In some instances, double His-tagged proteins were captured via Ni^2+/NTA chelation on a series S sensor chip containing carboxymethylated dextran surface pre-immobilized with nitrilotriacetic acid (NTA). The surface was then activated and enhanced with NHS/EDC mixture and His captured proteins covalently coupled to the surface as succinamide esters. Ethanolamine was injected later to block any unreacted esters. Unbound Ni^2+ and non-covalently bound proteins were eluted by EDTA injections.
Typical immobilization levels were 2000-3000 Response Units (RU). Flow cell 1 was left blank as a reference surface. Immobilization experiments were carried out at 25° C. in a running buffer containing 20 mM HEPES (pH 8.0), 200 mM NaCl and 0.005% (v/v) surfactant P20.
Binding experiments were carried out in Running Buffer+2% v/v DMSO. […] Data were reduced, solvent corrected, and double referenced by Biacore T200 Evaluation Software. Data were fit globally to a two state kinetic interaction model and the Kd determined from the (kd/ka) ratio. A 1:1 binding stoichiometry was inferred from the steady state binding curves and the maximum observed Response Unit (RU) levels.

[3] = system: MLKL translocation in MDFs; assay: Fractionation and Blue Native PAGE, MLKL membrane translocation; format: cell-based, mouse; settings: TSQ up to 6 hours, 1 μM test compound, anti-MLKL blots of Blue-Native PAGE
Protocol: MDFs were seeded in 6 well plates (5×10^5 per well) and allowed to attach overnight. Cells were stimulated with TSQ for up to 6 hours in the presence of 1 μM test compound or DMSO control. Cells were harvested by scraping, washed once in PBS and permeabilized in buffer (20 mM Hepes (pH 7.5), 100 mM KCl, 2.5 mM MgCl2, and 100 mM sucrose) containing 0.025% digitonin (BIOSYNTH, Staad, Switzerland) and supplemented with EDTA-free Complete protease inhibitor cocktail (Roche), 2 μM N-ethyl maleimide, and phosphatase inhibitors (5 mM β-glycerophosphate, 1 mM Na Molybdate, 1 mM Na Pyrophosphate and 100 μM Na Fluoride). Permeabilization was confirmed by trypan blue uptake, and cytosolic and crude membrane fractions were separated by centrifugation at 11,000×g for 5 min. Digitonin was added to the cytoplasmic fraction to a final concentration of 1% and the crude membrane fraction was further solubilized in permeabilization buffer+1% digitonin and incubated on ice for 20 min. Crude membrane suspension was centrifuged at 11,000×g for 5 min and the supernatant loaded alongside cytoplasmic fraction on 4-16% Bis-Tris Native PAGE gel (LifeTechnologies). […] MLKL containing complexes were detected by anti-MLKL (3H1) Western blotting as described above.

[4] = system: transformed iBMDMs; assay: Poly(I:C) experiment, RIP1-independent necroptosis; format: cell-based; settings: poly:IC 50 ug/ml, zVAD 25 uM, 48 hrs
Protocol: Cells were harvested after 48 hrs. Cell death was analysed via propidium iodide staining and flow cytometry.

[5] = biological target: T3, human MLKL(190-471) pseudokinase domain (Homo sapiens, UniProt Q8NB16); assay: STD NMR nucleotide competition, human MLKL; format: binding; design: His6 (pFastBac HTb, TEV-cleavable) (N, cleaved yes); made in house; host or cells: Sf21 insect cells; settings: 200 μM compound, 200 μM nucleotide, 2 μM human MLKL(190-471)
T3 sequence (Q8NB16 190-471): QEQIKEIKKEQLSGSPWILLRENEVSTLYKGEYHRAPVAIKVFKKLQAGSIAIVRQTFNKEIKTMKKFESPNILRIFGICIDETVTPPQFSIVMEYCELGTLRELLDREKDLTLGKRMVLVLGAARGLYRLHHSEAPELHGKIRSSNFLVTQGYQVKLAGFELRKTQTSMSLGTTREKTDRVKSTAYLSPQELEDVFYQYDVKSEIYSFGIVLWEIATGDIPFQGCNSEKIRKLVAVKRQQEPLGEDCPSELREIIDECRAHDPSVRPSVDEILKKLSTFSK
Protocol: (§1) Nucleotides were dissolved in NMR buffer (20 mM HEPES, pH 7.5, 200 mM NaCl, 90% D2O, 10% H2O) at a final concentration of 200 μM in each sample of STD experiments. Three different samples were prepared for each nucleotide: (1) ATP or ADP with protein buffer added as equivalent volume of protein containing samples (2) ATP or ADP with MLKL pseudokinase domain at a final concentration of 2 μM (3) ATP or ADP with MLKL pseudokinase domain (2 μM) with test compound at 200 μM. […] Saturation of the protein resonances was achieved by a 4 s train of Gaussian pulses centred at −0.5 ppm. For the reference spectra, a similar saturation pulse was applied at a frequency centred 20,000 Hz off-resonance. A 15 ms T2-spin-lock period was employed before acquisition to allow the residual protein signal to decay. NMR data were processed in TOPSPIN version 3.2 (Bruker BioSpin).

[6] = biological target: T2, mouse MLKL(179-464) pseudokinase domain; assay: STD NMR nucleotide competition, mouse MLKL; format: binding; settings: 200 μM compound, 200 μM nucleotide, 2 μM mouse MLKL(179-464)
Protocol: as §1

T1 sequence (Q9QZL0 22-292 limits assumed): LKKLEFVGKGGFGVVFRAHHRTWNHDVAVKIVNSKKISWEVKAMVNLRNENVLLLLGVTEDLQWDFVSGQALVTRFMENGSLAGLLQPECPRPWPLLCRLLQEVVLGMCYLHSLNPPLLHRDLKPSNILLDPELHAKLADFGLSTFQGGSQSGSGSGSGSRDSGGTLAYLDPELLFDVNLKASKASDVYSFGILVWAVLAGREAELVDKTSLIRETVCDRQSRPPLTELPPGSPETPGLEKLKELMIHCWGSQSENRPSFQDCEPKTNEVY

CN(c1ccc(NC(=O)Nc2ccc(OC(F)(F)F)cc2)cc1)c1ccnc(Nc2cccc(S(N)(=O)=O)c2)n1 [Compound 1, 3-((4-(methyl(4-(3-(4-(trifluoromethoxy)phenyl)ureido)phenyl)amino)pyrimidin-2-yl)amino)benzenesulfonamide]
inhibition of RIPK3 catalytic activity and of RIPK3-mediated phosphorylation of MLKL ([1]; in vitro kinase assays): neither the catalytic activity of recombinant RIPK3 nor RIPK3-mediated phosphorylation of MLKL were inhibited
concentrations leading to enhanced RIPK3-mediated phosphorylation of MLKL [1]: ≥ 10 µM
concentrations leading to enhanced RIPK3-mediated phosphorylation of MLKL ([1]; listed as compound 1): > 5 µM
impact on recombinant RIPK3 kinase activity ([1]; relative to DMSO control, up to 12.5 μM test compound): no impact
Kd [2]: 9.3 µM
MLKL translocation to the membrane fraction [3]: retarded translocation to the membrane fraction
inhibition of Poly(I:C) and zVAD induced necroptosis [4]: inhibits Poly(I:C) and zVAD induced necroptosis
competition with ATP and ADP for binding (STD NMR) [5]: can compete with (i) ATP and (ii) ADP
competition with ATP and ADP for binding (STD NMR) [6]: can compete with (i) ATP and (ii) ADP
